A short description of the data set: Solubility of the pure product in mixed solvents of ethanol and water. Format: physicochemical. The procedure:
One-hundred milliliters each of mixed solvents of ethanol and water in predetermined volume ratios were respectively adjusted to predetermined temperatures and each […] of N-(1(S)-ethoxycarbonyl-3-phenylpropyl)-L-alanine was no longer dissolved. After 30 minutes of standing, the supernatant was taken and the solubility (weight %) was determined according to the weight after concentration to dryness/the weight of the solution.

Molecules are shown by their SMILES.

As to `CCOC(=O)[C@H](CCc1ccccc1)N[C@@H](C)C(=O)O` [N-(1(S)-ethoxycarbonyl-3-phenylpropyl)-L-alanine], the Solubility is listed as 1 weight % (ethanol/water volume ratio 0.43, 10° C.); 9 weight % (ethanol/water volume ratio 0.43, 65° C.); 2 weight % (ethanol/water volume ratio 1.00, 10° C.); 3 weight % (ethanol/water volume ratio 1.00, 20° C.); 21 weight % (ethanol/water volume ratio 1.00, 65° C.); 3 weight % (ethanol/water volume ratio 2.33, 10° C.). For the same molecule, the Solubility is 4 weight % (ethanol/water volume ratio 2.33, 20° C.); 42 weight % (ethanol/water volume ratio 2.33, 65° C.); 4 weight % (ethanol/water volume ratio 4.00, 10° C.); 5 weight % (ethanol/water volume ratio 4.00, 20° C.); 45 weight % (ethanol/water volume ratio 4.00, 65° C.); 3 weight % (ethanol/water volume ratio 5.67, 10° C.). The Solubility is reported as 5 weight % (ethanol/water volume ratio 5.67, 20° C.); 42 weight % (ethanol/water volume ratio 5.67, 65° C.); 3 weight % (ethanol/water volume ratio 15.7, 10° C.); 4 weight % (ethanol/water volume ratio 15.7, 20° C.); 26 weight % (ethanol/water volume ratio 15.7, 65° C.); 2 weight % (ethanol/water volume ratio 249, 10° C.). For the same molecule, the Solubility is listed as 3 weight % (ethanol/water volume ratio 249, 20° C.) and 17 weight % (ethanol/water volume ratio 249, 65° C.).
